Reference: ChEMBL document CHEMBL1201862, “PubChem BioAssay data set” (2004)
Activity calls are given as the source filed them.

Tests used:
[1] = molecular target: Glucose-6-phosphate 1-dehydrogenase (Homo sapiens, UniProt P11413); experiment: inhibition of Homo sapiens G6PD, dose series – biochemical, fluorescence, selectivity assay for P. falciparum G6PD inhibitor project, dose response (AID 504792); type: functional
CHO = CHO cell viability loss, potency – luminescence, cytotoxicity control for TLR9-MyD88 binding inhibitor project, dose response (AID 588339); type: functional, cell-based, hamster; conditions: Cricetulus griseus;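 further: CHO cells stably coexpressing TLR9 and MyD88 fusions from primary screen; compound exposure lasted 48 hours before viability readout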
[2] = molecular target: Heat shock protein HSP 90-alpha (Homo sapiens, UniProt P07900); type: functional, organism-based
Beta Lactamase = Beta Lactamase (Pseudomonas aeruginosa, UniProt Q932Y6); experiment: BLA reporter interference, concentration series – BLA reporter cells, FRET fluorescence, artefact control for TLR9-MyD88 binding inhibitor project, dose response (AID 588341); type: cell-based;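 further: cell based assay in CHO-K1 cells stably expressing beta-lactamase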
Caspase-3 = molecular target: T1, Caspase-3 (Homo sapiens, UniProt P42574); type: functional;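 further: Dose-response selectivity test against caspase-3 for candidate inhibitors of sentrin-specific proteases (SENPs)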
T1 sequence (P42574 whole entry): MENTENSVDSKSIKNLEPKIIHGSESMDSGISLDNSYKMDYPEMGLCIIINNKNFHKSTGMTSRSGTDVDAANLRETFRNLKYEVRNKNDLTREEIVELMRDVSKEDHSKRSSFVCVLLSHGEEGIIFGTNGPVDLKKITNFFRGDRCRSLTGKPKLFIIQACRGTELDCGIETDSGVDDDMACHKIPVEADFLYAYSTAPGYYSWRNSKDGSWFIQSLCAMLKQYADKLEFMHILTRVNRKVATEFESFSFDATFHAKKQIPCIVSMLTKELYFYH

[3] = molecular target: T2, Sentrin-specific protease 7 (Homo sapiens, UniProt Q9BQF6); type: functional;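 further: Luminescence-based dose-response confirmation of ultra-high-throughput screening hits, measuring inhibition of SENP7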
T2 sequence (Q9BQF6 whole entry): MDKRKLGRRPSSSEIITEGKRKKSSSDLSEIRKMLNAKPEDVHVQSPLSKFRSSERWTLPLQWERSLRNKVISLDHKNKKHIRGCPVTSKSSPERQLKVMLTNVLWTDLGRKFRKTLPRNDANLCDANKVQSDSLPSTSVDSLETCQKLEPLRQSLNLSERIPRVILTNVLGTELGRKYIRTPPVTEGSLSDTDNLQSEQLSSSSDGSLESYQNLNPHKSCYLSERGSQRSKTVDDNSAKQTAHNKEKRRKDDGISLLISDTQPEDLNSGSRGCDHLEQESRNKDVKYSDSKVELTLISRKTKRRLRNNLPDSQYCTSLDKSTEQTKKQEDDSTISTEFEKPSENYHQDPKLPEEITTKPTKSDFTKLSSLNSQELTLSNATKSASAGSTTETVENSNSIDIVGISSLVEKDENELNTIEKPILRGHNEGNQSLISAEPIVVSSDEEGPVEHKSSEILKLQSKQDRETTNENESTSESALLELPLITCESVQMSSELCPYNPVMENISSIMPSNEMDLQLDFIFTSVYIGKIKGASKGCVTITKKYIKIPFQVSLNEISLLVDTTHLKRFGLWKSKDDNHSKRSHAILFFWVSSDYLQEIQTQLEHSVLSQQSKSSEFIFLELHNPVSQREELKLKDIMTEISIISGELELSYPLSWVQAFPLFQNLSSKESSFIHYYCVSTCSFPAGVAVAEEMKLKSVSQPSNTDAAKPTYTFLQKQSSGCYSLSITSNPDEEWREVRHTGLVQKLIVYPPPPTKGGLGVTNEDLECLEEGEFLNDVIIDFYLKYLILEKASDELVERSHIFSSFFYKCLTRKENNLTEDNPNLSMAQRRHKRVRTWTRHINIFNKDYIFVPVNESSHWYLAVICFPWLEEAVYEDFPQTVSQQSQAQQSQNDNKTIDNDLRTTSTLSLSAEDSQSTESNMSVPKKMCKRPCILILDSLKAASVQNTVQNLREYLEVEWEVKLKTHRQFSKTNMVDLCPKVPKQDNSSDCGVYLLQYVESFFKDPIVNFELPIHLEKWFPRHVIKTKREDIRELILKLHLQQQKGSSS

[4] = molecular target: T3, Sentrin-specific protease 6 (Homo sapiens, UniProt Q9GZR1); type: functional;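 further: Luminescence-based dose-response confirmatory assay of SENP6 inhibition, following up an ultra-high-throughput screen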
T3 sequence (Q9GZR1 whole entry): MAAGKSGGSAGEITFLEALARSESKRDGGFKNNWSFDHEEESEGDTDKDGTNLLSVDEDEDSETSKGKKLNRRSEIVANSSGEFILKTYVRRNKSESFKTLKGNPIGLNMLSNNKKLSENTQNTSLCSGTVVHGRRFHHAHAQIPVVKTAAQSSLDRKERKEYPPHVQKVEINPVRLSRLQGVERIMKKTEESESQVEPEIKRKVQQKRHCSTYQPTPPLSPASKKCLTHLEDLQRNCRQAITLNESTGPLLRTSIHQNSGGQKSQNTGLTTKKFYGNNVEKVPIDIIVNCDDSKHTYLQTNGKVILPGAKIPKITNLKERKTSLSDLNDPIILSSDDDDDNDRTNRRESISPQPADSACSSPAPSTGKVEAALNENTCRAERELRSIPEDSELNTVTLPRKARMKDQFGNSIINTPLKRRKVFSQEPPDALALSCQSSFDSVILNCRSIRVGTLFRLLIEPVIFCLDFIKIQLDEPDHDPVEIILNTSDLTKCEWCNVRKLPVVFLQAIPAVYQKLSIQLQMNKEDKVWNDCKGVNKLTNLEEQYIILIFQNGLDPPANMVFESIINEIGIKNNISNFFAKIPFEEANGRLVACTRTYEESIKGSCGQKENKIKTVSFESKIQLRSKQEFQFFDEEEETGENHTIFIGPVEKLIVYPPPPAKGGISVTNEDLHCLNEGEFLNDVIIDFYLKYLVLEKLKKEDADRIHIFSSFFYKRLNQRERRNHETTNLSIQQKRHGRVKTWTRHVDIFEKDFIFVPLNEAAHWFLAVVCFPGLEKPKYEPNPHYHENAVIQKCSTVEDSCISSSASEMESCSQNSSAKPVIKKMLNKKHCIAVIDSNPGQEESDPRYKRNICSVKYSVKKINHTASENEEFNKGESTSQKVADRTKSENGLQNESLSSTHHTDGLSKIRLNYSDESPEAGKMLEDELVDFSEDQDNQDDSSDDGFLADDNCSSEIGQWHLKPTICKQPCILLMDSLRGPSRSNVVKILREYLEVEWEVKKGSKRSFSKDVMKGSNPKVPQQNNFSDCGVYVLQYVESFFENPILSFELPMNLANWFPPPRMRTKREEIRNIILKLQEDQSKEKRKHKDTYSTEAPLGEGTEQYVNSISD

[5] = molecular target: T4, Sentrin-specific protease 8 (Homo sapiens, UniProt Q96LD8); type: functional;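 further: luminescence read-out of SENP8 inhibition, dose-response confirmation following an ultra-high-throughput screen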
T4 sequence (Q96LD8 whole entry): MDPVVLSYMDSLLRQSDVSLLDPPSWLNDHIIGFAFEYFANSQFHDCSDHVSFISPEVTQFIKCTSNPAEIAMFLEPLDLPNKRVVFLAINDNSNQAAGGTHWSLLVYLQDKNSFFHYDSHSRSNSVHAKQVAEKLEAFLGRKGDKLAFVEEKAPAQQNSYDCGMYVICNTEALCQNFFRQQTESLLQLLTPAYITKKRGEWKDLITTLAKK

Protein skinhead-1 = molecular target: T5, Protein skinhead-1 (Caenorhabditis elegans, UniProt P34707); type: functional
T5 sequence (P34707 whole entry): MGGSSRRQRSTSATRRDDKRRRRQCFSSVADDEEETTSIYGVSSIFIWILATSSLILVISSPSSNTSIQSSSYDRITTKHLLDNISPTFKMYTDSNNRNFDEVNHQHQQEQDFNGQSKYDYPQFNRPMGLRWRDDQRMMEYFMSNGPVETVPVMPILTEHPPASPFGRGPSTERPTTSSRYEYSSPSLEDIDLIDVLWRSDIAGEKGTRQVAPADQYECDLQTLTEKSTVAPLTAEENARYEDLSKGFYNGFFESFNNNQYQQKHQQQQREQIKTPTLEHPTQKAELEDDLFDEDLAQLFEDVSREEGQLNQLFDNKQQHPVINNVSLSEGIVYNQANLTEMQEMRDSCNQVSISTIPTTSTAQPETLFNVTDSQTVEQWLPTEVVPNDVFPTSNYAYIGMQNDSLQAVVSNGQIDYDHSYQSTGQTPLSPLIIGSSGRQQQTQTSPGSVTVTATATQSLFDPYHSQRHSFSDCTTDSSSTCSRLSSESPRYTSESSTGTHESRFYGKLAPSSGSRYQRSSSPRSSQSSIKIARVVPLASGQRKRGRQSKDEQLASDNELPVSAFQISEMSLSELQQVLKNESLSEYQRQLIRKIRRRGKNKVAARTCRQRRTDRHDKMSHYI

[6] = system: Streptococcus sp. 'group A'; experiment: Streptococcus pyogenes SK(-)GAS viability under kanamycin – luminescence, BacTiterGlo, confirmation, counter-screen for streptokinase expression inhibitor project, dose response (AID 1900); type: functional, organism-based
Streptokinase A = molecular target: T6, Streptokinase A (Streptococcus pyogenes serotype M1, UniProt P10520); experiment: viability-normalized secreted streptokinase activity reduction – plasminogen activation absorbance, OD405, dose response (AID 1914); type: functional, Streptococcus pyogenes M1 GAS;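 further: secreted streptokinase activity via plasminogen activation per viability signal from cell pellet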
T6 sequence (P10520 whole entry): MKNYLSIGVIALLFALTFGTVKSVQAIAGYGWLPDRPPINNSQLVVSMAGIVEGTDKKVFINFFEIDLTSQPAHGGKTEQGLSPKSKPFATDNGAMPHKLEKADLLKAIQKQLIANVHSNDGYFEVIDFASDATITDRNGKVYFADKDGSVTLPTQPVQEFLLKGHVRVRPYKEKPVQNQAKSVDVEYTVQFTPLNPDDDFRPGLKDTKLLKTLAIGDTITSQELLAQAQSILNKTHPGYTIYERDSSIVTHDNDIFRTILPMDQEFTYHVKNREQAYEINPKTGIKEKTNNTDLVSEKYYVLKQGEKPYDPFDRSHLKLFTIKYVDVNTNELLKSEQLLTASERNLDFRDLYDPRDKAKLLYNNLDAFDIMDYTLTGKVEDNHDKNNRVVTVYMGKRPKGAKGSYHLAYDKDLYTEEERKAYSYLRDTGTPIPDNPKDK

Streptococcus = experiment: GAS UMAA2166 growth inhibition – luminescence, BacTiterGlo, counter-screen for streptokinase expression inhibitor project, dose response (AID 1915); type: functional, organism-based;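 further: potency for reduction of bacterial viability or growth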
[7] = molecular target: T7, Carboxy-terminal domain RNA polymerase II polypeptide A small phosphatase 1 (Homo sapiens, UniProt Q9GZU7); experiment: CTDSP1 inhibitors, concentration-response, biochemical, absorbance readout, ultra-high-throughput screen actives (AID 540297); type: functional
T7 sequence (Q9GZU7 whole entry): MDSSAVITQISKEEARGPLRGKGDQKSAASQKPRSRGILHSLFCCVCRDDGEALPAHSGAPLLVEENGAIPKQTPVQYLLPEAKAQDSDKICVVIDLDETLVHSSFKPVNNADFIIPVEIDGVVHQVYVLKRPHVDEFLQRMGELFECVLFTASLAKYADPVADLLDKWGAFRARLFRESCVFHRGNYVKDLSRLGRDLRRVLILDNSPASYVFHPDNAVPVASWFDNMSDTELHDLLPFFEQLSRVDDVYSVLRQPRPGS

BJ [8] = experiment: BJ-TERT fibroblast viability loss – cell-based, RAS-independent, luminescence, dose response (AID 1933); type: functional; conditions: Homo sapiens
BJ [9] = experiment: cells; type: functional, cell-based; conditions: Homo sapiens
BJ [10] = experiment: BJ-TERT-LT-ST fibroblast viability loss – cell-based, RAS-independent, luminescence, dose response (AID 1935); type: functional; conditions: Homo sapiens;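 further: BJ fibroblasts immortalized with TERT plus LT and ST oncogenes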
[11] = DRD fibroblast viability loss – cell-based, non-viral oncogenic, luminescence, dose response (AID 1934); type: functional; conditions: Homo sapiens
BJ [12] = experiment: growth inhibition of engineered Ras-driven BJ cells – cell-based, alamar blue fluorescence, cherrypicked samples, dose response (AID 2631); type: functional; conditions: Homo sapiens;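 further: confirmatory dose-response assay in RAS-dependent BJ fibroblasts engineered with TERT, LT and ST, with cytotoxicity read by fluorescence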
INS1 = experiment: INS-1E survival protection against cytokine death – cell-based, luminescence, retest, dose response (AID 449756); type: functional; conditions: Rattus norvegicus;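 further: cell death triggered by IL-1 beta plus TNF-alpha plus IFN-gamma mixture; protective hits raise ATP signal compared with cytokine alone wells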
[13] = reduction of Shn3 3'UTR-driven luciferase in osteoblasts – cell-based, Clone20 osteoblasts, firefly luciferase, cherry-picked, dose response (AID 624132); type: functional;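 further: firefly luciferase luminescence from reporter carrying the Shn3 3'UTR in osteoblasts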
[14] = loss of viability in HepG2 cells – cell-based, CellTiter-Glo, cherry-picked, cytotoxicity control for Shn3 inhibitor project, dose response (AID 624134); type: functional
[15] = non-specific 3'UTR reporter inhibition in Clone20-Shn3RL – cell-based, Renilla luciferase, cherry-picked, counter-screen for Shn3 inhibitor project, dose response (AID 624133); type: functional

Glucose-6-phosphate 1-dehydrogenase, sequence (P11413 whole entry, the tested form may be a part): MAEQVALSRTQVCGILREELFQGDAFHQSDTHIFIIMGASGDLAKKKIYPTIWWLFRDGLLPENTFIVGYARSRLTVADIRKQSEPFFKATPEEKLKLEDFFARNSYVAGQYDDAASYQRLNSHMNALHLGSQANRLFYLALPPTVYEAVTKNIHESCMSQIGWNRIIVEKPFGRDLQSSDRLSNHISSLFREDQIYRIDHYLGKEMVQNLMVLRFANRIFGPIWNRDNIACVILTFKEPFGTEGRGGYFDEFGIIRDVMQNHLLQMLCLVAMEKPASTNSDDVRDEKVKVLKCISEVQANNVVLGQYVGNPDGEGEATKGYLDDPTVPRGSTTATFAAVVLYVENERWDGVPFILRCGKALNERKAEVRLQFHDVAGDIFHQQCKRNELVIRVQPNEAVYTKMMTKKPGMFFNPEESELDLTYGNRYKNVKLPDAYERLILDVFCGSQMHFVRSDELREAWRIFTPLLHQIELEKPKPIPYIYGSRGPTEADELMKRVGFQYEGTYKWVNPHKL
Beta Lactamase, sequence (Q932Y6 whole entry): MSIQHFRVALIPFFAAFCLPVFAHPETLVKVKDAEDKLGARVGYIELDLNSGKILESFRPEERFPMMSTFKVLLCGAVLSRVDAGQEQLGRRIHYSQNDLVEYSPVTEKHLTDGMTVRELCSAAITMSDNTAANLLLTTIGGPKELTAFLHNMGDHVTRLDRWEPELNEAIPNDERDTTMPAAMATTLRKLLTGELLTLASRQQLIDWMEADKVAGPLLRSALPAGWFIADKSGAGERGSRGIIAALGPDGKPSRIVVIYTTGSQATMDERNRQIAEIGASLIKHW

CC(=O)Nc1ccc2c(c1)Cc1cc(N3C(=O)C=CC3=O)ccc1-2
IC50 [1]: > 80 µM (inactive)
IC50 (CHO): 1.86 µM (active)
AC50 [2]: 0.68 µM (active)
IC50 (Beta Lactamase): 7.23 µM (active)

CCCOC(=O)c1ccc(NC(=O)/C=C/c2cccs2)cc1
IC50 (Caspase-3): 62.9 µM (active)
IC50 [3]: 12.9 µM (active)
IC50 [4]: 69.7 µM (active)
IC50 [5]: 70.2 µM (active)
IC50 (Protein skinhead-1): > 100 µM (inactive)

CCOC(=O)c1cc2ccc3ccccc3c2s1
IC50 (Caspase-3): 49.5 µM (active)
IC50 [3]: 10.5 µM (active)
IC50 [4]: 70.9 µM (active)
IC50 [5]: > 100 µM (inactive)

Cc1cccc(NCc2nc3ccccc3n2Cc2ccccc2)c1
EC50 [6]: 8.81 µM (active)
EC50 (Streptokinase A): > 150 µM (not active)
EC50 (Streptococcus): > 150 µM (not active)
IC50 (Caspase-3): 44.6 µM (active)
IC50 [3]: 12.7 µM (active)
IC50 [4]: 37.7 µM (active)
IC50 [5]: 54.9 µM (active)

Cc1cccn2c(=O)c3cc(C#N)/c(=N\C(=O)c4ccco4)n(Cc4ccco4)c3nc12
IC50 [7]: > 80 µM (inactive)

CC(=O)c1ccccc1NS(=O)(=O)c1cccc2nsnc12
IC50 [7]: 4.66 µM (active)

Cc1cccc(NC(=O)/C=C/c2ccc([N+](=O)[O-])s2)c1
EC50 (BJ [8]): 4.95 µM (inconclusive)
EC50 (BJ [9]): 15.7 µM (active)
EC50 (BJ [10]): 4.67 µM (inconclusive)
EC50 [11]: 4.68 µM (active)
EC50 (BJ [12]): 0.531 µM (active)
AC50 (INS1): 7.91 µM (active)
AC50 [13]: 3.29 µM (active)
AC50 [14]: 9.74 µM (active)
AC50 [15]: 13.5 µM (active)

Cc1ccc(Nc2ncnc3c2oc2ccccc23)cc1
IC50 (Caspase-3): 28 µM (active)
IC50 [3]: 5.1 µM (active)
IC50 [4]: > 100 µM (inactive)
IC50 [5]: > 100 µM (inactive)
